Laboratory results published in patent publication US10975056B2 (GlaxoSmithKline Intellectual Property Development Limited, priority 2016, dated 2021).
Read-outs that look alike come from different tables or passages of the source.

Experiments:
[1] = tested on: erythroid progenitor cells (EPCs); experiment: Fetal hemoglobin (HbF) ELISA in day 7 erythroid progenitor cells; assay type: cell-based, human; settings: for EC50: Homo sapiens, Erythroid progenitor cell, read-out: EPC ELISA (pEC50 category) (converted)
Protocol: Day 7 EPCs were cultured in duplicate plates with serially diluted Compound A for 5 days at 37° C. Wells were then analyzed for either induction of fetal hemoglobin (HbF,HbF ELISA) or cell growth (Cell Titer-Glo). In both cases, signal was normalized to vehicle-control treated cells.
Culture, Expansion, and Characterization of Day 7 Erythroid Progenitor Cells (EPC)s
All donors provided written informed consent for use of their samples, and the collection and use of the samples received institutional review board approval. All cryopreserved human bone marrow CD34+ cells used here were obtained from AlICells (Emeryville, Calif.) and were generally from different donors. The CD34+ cells were cultured to generate EPCs at day 7. Briefly, 1 million cells were cultured in 5% CO2, 5% O2 at 37° C. in H3000 Stemspan media (StemCell Technologies Vancouver, BC, Canada) supplemented with 2 mM L-glutamine, 40 μg/mL human low-density lipoproteins (StemCell Technologies), 10 ng/mL recombinant human (rh) interleukin IL-3 (R&D Systems, Minneapolis, Minn.), 100 ng/mL rh stem cell factor (R&D Systems), and 0.5 U/mL rh erythropoietin (Invitrogen, Grand Island, N.Y.). Cells were split and refed on day 4 with complete culture media described above and harvested on day 7 for evaluation of erythroid marker expression and assessment of γ-globin induction. Day 7 EPCs were then frozen in liquid nitrogen at 5 to 10 million cells/mL in 95% fetal bovine serum (FBS; Invitrogen) with 5% DMSO for subsequent use.
At the time of compound treatment, frozen day 7 EPCs prepared as described above were thawed, washed once and re-suspended in complete culture media as described above with the exception of an increase of rhEPO to 3 U/mL. Cells were counted and diluted to […] for plating into assay plates. Cells were then dispensed, at 30 μL per well with Multidrop™ Combi Reagent Dispenser (Thermo Scientific), into 384-well cell culture plates into which test compounds were pre-dispensed at 100 nL/well. Black Clear Bottom (Greiner Bio-One; 781090) and White (Greiner Bio-One; 781080) plates were used for ELISA and Cell Titer-Glo assays, respectively. The final cell density in the assays is 1,000 cells per well, with final compound concentrations between 33 nM (highest) and […] (lowest) for the 22-points serial dilution.
Fetal Hemoglobin (HbF) ELISA
Coating anti-HbF Ab (Bethyl Lab; cat. A80-136A) was diluted by 100-fold in the coating buffer (0.05 M carbonate-bicarbonate, pH 9.6), and then 20 μL/well was added to a 384-well MaxiSorp ELISA plate (Thermo Fisher; cat. 464718). After 1 hour incubation at room temperature, the plates were washed twice with ELISA washing buffer (50 mM Tris, 0.05% Tween 20, pH 8.0) with an EL406 plate washer (BioTek, Winooski, Vt.). Then, 40 μL/well of blocking buffer consisting of 50 mM Tris and 1% BSA (pH 8.0) was added to the plate and stored at 4° C. with cover sheet overnight, or until time of the assay. The coated ELISA plates were stable for up to 30 days at 4° C. On the day of assay, the plates were washed twice with ELISA washing buffer prior to addition of cell lysate.
After 5 days at 37° C. with 5% CO2 cell culture plates for ELISA assay were put into −80° C. freezer for a minimum of 2 hours. After thawing at room temperature, 30 μL of cell lysis buffer (Invitrogen; cat. FNN0011, supplemented with 1× protease inhibitor) was added to each well and the resulting cell lysate was mixed eight times with a Cybi-Well (Jena, Germany) pipettor. Following the mixing procedure, 20 μL/well of lysate was transferred to the coated ELISA plates described above followed by a 1 hour incubation at room temperature. The ELISA assay plates were washed three times with ELISA wash buffer. 20 μL per well of 1:75,000 to 100,000 diluted horseradish peroxidase (HRP) conjugate detection antiHbF Ab (Bethyl Labs; cat. A80-136P, diluted in 50 mM Tris [pH 8.0], 1% BSA, 0.05% Tween-20) was then added. […]

[2] = target: DNMT1 (Homo sapiens, UniProt P26358); experiment: DNMT1 biochemical activity, breaklight assay and/or SPA assay; settings: binned activity in either the breaklight or the SPA assay; for IC50: read-out: DNMT1 BioChemical (pIC50 category) (converted)
Protocol: DNMT1 breaklight in vitro assays were conducted in a total volume of 50 μl in a standard 384 well format, using black non-binding surface microplates (Corning 3575). […] Negative control wells used 5 μl of DNMT1 and 5 μl of oligonucleotide but 0 μM SAM. All reagents were made up in 1× assay buffer (20 mM Tris pH 6.8, 25 mM NaCl, 0.5 mM MgCl2, 0.01% Triton X100 and 1 mM DTT). The reaction was incubated at 26° C. for 45 min and then stopped with the addition of 40 μl detection reagent. Detection reagent, made up in 1× Gla assay buffer (20 mM Tris pH 8.0, 80 mM NaCl, 0.75 mM MgCl2, 0.01% Triton X100 and 1 mM DTT) has a final concentration of 100 μM SAH (Sigma #A9384) and 0.0008 units/μl Gla1 restriction endonuclease (Sibenzyme #E494). Following addition of the detection reagent the plate was incubated in the dark at room temperature for 5 hr. Fluorescence intensity was then measured on the PHERAstar FS (BMG Labtech) at Ex 485 nm and Em 520 nm, with a gain of 400 and an integration time of 100 ms.
Biochemical activity of DNMT1 analyzed using SPA technology. Plates (Griener 784075) were pre-stamped with 100 nL/well of compound (11-point, 3-fold serial dilution). […] Low control wells contained 5 μL of buffer instead of enzyme. Following a 40 minute incubation, the reaction was quenched upon the addition of 10 μL of stop mixture containing 1 mM SAM (Sigma A7007) and 2 mg/mL PEI beads (Perkin Elmer RPNQ0098). Plates were sealed, centrifuged for 1 min and then read on a Viewlux (Perkin Elmer) using the 613 nm emission filter/300 s read time following a 30 minute dark adapt. Assay conditions prior to quench consisted of 40 nM DNMT1 (601-1600, produced internally), 100 nM 3H-SAM (American Radiolabeled Chemicals ART 0288), 900 nM SAM (New England BioLabs B9003S) and 200 nM hemi methylated DNA oligonucleotide (synthesized at Integrated DNA Technologies, 5′-[…]-3′) in 50 mM HEPES (pH 8.0), 2 mM MgCl2, 1 mM DTT, 0.01% NP-40 and 0.01% BSA.
Comments • 1. […] Where a field is empty, the compound was not tested in that assay.

Sequence of DNMT1 (P26358 whole entry, looked up): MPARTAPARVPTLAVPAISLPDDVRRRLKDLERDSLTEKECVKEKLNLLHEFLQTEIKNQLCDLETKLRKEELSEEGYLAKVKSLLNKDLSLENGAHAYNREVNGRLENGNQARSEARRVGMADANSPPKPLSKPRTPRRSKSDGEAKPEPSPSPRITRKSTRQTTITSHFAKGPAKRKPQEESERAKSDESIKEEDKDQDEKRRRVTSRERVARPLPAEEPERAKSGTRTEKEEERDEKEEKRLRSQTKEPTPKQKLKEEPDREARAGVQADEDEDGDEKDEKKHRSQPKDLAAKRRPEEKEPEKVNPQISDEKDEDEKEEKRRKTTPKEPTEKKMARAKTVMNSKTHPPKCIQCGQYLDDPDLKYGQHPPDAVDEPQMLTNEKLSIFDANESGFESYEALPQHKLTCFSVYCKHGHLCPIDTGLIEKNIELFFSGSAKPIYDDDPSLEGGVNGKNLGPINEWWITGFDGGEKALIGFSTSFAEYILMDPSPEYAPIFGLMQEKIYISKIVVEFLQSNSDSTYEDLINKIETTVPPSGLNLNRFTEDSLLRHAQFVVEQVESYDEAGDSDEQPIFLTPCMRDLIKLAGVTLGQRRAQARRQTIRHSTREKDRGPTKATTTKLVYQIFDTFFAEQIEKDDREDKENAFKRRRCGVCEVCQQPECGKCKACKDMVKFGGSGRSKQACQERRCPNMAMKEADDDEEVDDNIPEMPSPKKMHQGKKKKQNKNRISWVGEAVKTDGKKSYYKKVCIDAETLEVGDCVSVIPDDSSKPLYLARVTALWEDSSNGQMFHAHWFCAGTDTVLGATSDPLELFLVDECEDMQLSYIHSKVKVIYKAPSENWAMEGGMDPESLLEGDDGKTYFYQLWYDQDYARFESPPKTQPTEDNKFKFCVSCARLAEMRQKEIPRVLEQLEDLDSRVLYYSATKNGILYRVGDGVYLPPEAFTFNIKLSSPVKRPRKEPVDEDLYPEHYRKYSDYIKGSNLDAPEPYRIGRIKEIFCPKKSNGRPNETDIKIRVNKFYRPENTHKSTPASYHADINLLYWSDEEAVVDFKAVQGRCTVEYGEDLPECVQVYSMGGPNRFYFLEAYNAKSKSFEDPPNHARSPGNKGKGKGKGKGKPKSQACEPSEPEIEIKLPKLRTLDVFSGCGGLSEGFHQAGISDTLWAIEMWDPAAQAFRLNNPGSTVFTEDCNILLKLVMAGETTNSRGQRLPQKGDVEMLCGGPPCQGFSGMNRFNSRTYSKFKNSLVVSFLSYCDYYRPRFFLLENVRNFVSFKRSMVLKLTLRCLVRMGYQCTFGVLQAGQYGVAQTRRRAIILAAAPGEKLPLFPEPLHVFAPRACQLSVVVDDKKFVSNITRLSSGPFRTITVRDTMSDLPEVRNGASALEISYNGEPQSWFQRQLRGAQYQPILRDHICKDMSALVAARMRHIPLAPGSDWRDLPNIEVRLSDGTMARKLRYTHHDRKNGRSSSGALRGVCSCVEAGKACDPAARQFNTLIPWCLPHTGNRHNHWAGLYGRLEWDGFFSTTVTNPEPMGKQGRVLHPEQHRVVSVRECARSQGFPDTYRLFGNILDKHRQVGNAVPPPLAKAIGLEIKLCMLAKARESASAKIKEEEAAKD

Row | EC50 ([1]; HbF ELISA, day 7 EPCs, 5 days) | DNMT1 BioChemical (pIC50 category) [2] | IC50 [2] | SMILES | EPC ELISA (pEC50 category) ([1]; HbF ELISA, day 7 EPCs, 5 days) | EC50 [1]
1 | 316 to 1000 nM | – | < 316 nM | CCc1c(C#N)c(SC(C(N)=O)c2ccccc2)nc(N2CCCN(C)CC2)c1C#N (single isomer, unassigned; isomer 1) [Example 254, 2-((3,5-dicyano-4-ethyl-6-(4-methyl-1,4-diazepan-1-yl)pyridin-2-yl)thio)-2-phenylacetamide (Isomer 1)] | – | –
2 | 316 to 1000 nM | D (Category D: ≥6.5) | – | CCc1c(C#N)c(S[C@H](C(N)=O)c2ccccc2)nc(N2CC(N)C2)c1C#N (stereo in doubt) [Example 635, 2-((6-(3-aminoazetidin-1-yl)-3,5-dicyano-4-ethylpyridin-2-yl)thio)-2-phenylacetamide] | – | –
3 | > 31600 nM | – | 316 to 1000 nM | CCc1c(C#N)c(SC(C(N)=O)c2ccncc2)nc(N2CCN(C)C(=O)C2)c1C#N (stereo not shown) [Example 10, 2-{[3,5-dicyano-4-ethyl-6-(4-methyl-3-oxopiperazin-1-yl)pyridin-2-yl]sulfanyl}-2-(pyridin-4-yl)acetamide] | – | –
4 | < 316 nM | – | 316 to 1000 nM | CC1CN(c2nc(SC(C(N)=O)c3ccccc3)c(C#N)c(C3CC3)c2C#N)CCN1 (stereo not shown) [Example 19, 2-((3,5-Dicyano-4-cyclopropyl-6-(3-methylpiperazin-1-yl)pyridin-2-yl)thio)-2-phenylacetamide] | – | –
5 | < 316 nM | D (Category D: ≥6.5) | – | CNC1CCCN(c2nc(SC(C(N)=O)c3ccccc3)c(C#N)c(C3CC3)c2C#N)C1 (stereo not shown) [Example 24, 2-((3,5-dicyano-4-cyclopropyl-6-(3-(methylamino)piperidin-1-yl)pyridin-2-yl)thio)-2-phenylacetamide] | – | –
6 | > 31600 nM | – | 316 to 1000 nM | CN(C)c1nc(SC(C(N)=O)c2ccncc2)c(C#N)c(C2CC2)c1C#N (stereo not shown) [Example 26, 2-((3,5-dicyano-4-cyclopropyl-6-(dimethylamino)pyridin-2-yl)thio)-2-(pyridin-4-yl)acetamide] | – | –
7 | > 31600 nM | D (Category D: ≥6.5) | – | CCc1c(C#N)c(SC(C(N)=O)c2ccncc2)nc(N(C)C)c1C#N (stereo not shown) [Example 27, 2-((3,5-dicyano-6-(dimethylamino)-4-ethylpyridin-2-yl)thio)-2-(pyridin-4-yl)acetamide] | – | –

Further lines, the compound ahead of its results:

Row | SMILES | EC50 ([1]; HbF ELISA, day 7 EPCs, 5 days) | DNMT1 BioChemical (pIC50 category) [2] | IC50 [2] | EPC ELISA (pEC50 category) ([1]; HbF ELISA, day 7 EPCs, 5 days) | EC50 [1]
8 | CCc1c(C#N)c(S[C@H](C)c2ccc(N(C)S(C)(=O)=O)cc2)nc(N2CCC(N)CC2)c1C#N (single isomer, unassigned) [Example 681, N-(4-(1-((6-(4-aminopiperidin-1-yl)-3,5-dicyano-4-ethylpyridin-2-yl)thio)ethyl)phenyl)-N-methylmethanesulfonamide] | 1000 to 31600 nM | D (Category D: ≥6.5) | – | – | –
9 | CCc1c(C#N)c(S[C@H](C(N)=O)c2ccccc2)nc(N2C[C@H](O)CO2)c1C#N (single isomer, unassigned) [Example 694] | 1000 to 31600 nM | D (Category D: ≥6.5) | – | – | –
10 | CCc1c(C#N)c(SC(C(N)=O)c2ccccc2)nc(N2CCCN(C)CC2)c1C#N (single isomer, unassigned; isomer 2) [Example 255, 2-((3,5-dicyano-4-ethyl-6-(4-methyl-1,4-diazepan-1-yl)pyridin-2-yl)thio)-2-phenylacetamide (Isomer 2)] | – | – | 1000 to 31600 nM | C (Category C: 6.0 ≤ x < 6.5) | –
11 | CCc1c(C#N)c(SC(C(N)=O)c2ccccc2)nc(N2CC(OC(=O)C(N)C(C)C)C2)c1C#N (stereo in doubt) [Example 333, (2R)-1-(6-((2-Amino-2-oxo-1-phenylethyl)thio)-3,5-dicyano-4-ethylpyridin-2-yl)azetidin-3-yl 2-amino-3-methylbutanoate] | 1000 to 31600 nM | D (Category D: ≥6.5) | – | – | –
12 | CCc1c(C#N)c(S[C@@H](C(N)=O)c2ccccc2)nc(N2CCC(O)(CN)C2)c1C#N.Cl (stereo in doubt) [Example 423, (R)-2-((6-((R)-3-(aminomethyl)-3-hydroxypyrrolidin-1-yl)-3,5-dicyano-4-ethylpyridin-2-yl)thio)-2-phenylacetamide hydrochloride] | – | D (Category D: ≥6.5) | – | C (Category C: 6.0 ≤ x < 6.5) | –
13 | CCc1c(C#N)c(SC(C(N)=O)c2ccccc2)nc(N2CCN(C3CCNCC3)CC2)c1C#N (stereo not shown) [Example 13, 2-({3,5-dicyano-4-ethyl-6-[4-(piperidin-4-yl)piperazin-1-yl]pyridin-2-yl}sulfanyl)-2-phenylacetamide] | 316 to 1000 nM | – | 316 to 1000 nM | – | –
14 | N#Cc1c(SC(C(N)=O)c2ccccc2)nc(N2CCNC(CO)C2)c(C#N)c1C1CC1 (stereo not shown) [Example 14, 2-({3,5-dicyano-4-cyclopropyl-6-[3-(hydroxymethyl)piperazin-1-yl]pyridin-2-yl}sulfanyl)-2-phenylacetamide] | 316 to 1000 nM | D (Category D: ≥6.5) | – | – | –
15 | N#Cc1c(SC(C(N)=O)c2ccccc2)nc(N2CCC(N3CCOCC3)CC2)c(C#N)c1C1CC1 (stereo not shown) [Example 16] | < 316 nM | D (Category D: ≥6.5) | – | – | –
16 | CCc1c(C#N)c(SC(C(N)=O)c2ccccc2)nc(N2CCC3(CCNC3)CC2)c1C#N.O=C(O)C(F)(F)F (stereo not shown) [Example 17, 2-((3,5-dicyano-4-ethyl-6-(2,8-diazaspiro[4.5]decan-8-yl)pyridin-2-yl)thio)-2-phenylacetamide; 2,2,2-trifluoroacetic acid] | – | D (Category D: ≥6.5) | – | – | < 316 nM
17 | N#Cc1c(SC(C(N)=O)c2ccccc2)nc(N2CCC(O)(CN)CC2)c(C#N)c1C1CC1 (stereo not shown) [Example 23] | 1000 to 31600 nM | D (Category D: ≥6.5) | – | – | –
